{
  "source": "patent US6329497A",
  "about": "“Sandramycin analogs” (The Scripps Research Institute, priority 1999, dated 2001)",
  "key": {"[1]": {"target": "T1, HIV-1 reverse transcriptase (Human immunodeficiency virus type 1 group M subtype B, UniProt P04585)", "assay": "Inhibition of HIV-1 reverse transcriptase", "format": "biochemical", "description": "The assay was performed according to an available procedure (Goldman, M. E.; Salituro, G. S.; Bowen, J. A.; Williamson, J. M.; Zink, D. L.; Schleif, W. A.; Emini, E. A. Mol. Pharmacol. 1990, 38, 20) with slight modification. A 45 L solution of reaction buffer containing 55 mM Tris·HCl, pH 8.2, 80 mM potassium chloride, 12 mM MgCl2, 1 mM DTT, 50 M EGTA, 2.5 g/mL rA·dT, 0.5 Ci of [^3 H]TTP, 10 M TTP, 1 mg/mL BSA, and 0.01% Triton X-100 was added to a well in a filter cluster plate (Millipore MAHV N45). The reverse transcription reaction was initiated upon addition of the reverse transcriptase (1 unit; 1 unit=10 pmol of [^3 H]TMP incorporated/60 min at 37° C.). The plate was incubated at 37° C. for 90 min. The plate was then placed on ice and 200 µL of 13% trichloroacetic acid and 10 mM sodium pyrophosphate was added to each well. The plate was chilled for 2 h and the liquid vacuumed out through the filter using a Millipore manifold (Millipore MAVM 09601). The precipitate was washed with 1 M and 10 mM sodium pyrophosphate twice. The filter was punched out and placed in a scintillation vial. 4 mL of cocktail was added. Radioactivity was determined by liquid scintillation counting.\nThe effects of sandramycin and its analogs on HIV-1 reverse transcriptase were determined by incubating the agents and the rA·dT containing buffer at 25° C. for 30 min prior to addition of the reverse transcriptase. Reactions containing no agents were used as controls, and those lacking the transcriptase were used as blanks."}, "[2]": {"assay": "Solubility of the agents in assay buffer / water", "format": "physicochemical", "conditions": "aqueous Tris-HCl/NaCl buffer pH 7.4"}, "[3]": {"test_system": "calf thymus DNA and 5'-d(GCATGC)2", "assay": "DNA binding affinity trends over calf thymus DNA and 5'-d(GCATGC)2 (fluorescence quenching)", "description": "(§1) Apparent absolute DNA binding constants for 1-22 and related agents including luzopeptin A were obtained by measurement of the fluorescence quenching upon titration addition of calf thymus DNA or the deoxyoligonucleotides 5'-d(GCXXGC)2 where XX=AT, TA, GC, and CG. For each agent, the characteristic fluorescence excitation and emission spectra were recorded in 10 mM Tris-HCl, 75 mM NaCl (pH 7.4) buffer, FIG. 6. For the DNA binding assays which quantitate the fluorescence quenching, excitation outside the absorbance range of DNA was employed and the most intense fluorescence emission at a longer wavelength monitored. For assay of the DNA-induced fluorescence quenching of the agents, a 2 mL buffer solution of Tris-HCl (pH 7.4) and 75 mM NaCl was employed. For titration, small aliquots of DNA were added to solutions of the agents in Tris-HCl buffer (pH 7.4).\n(§2) Despite these precautions, the fluorescence for a number of the analog solutions decreased for several of analogs (11, 14, 17, 21 and 22) and the quality of the binding constants for these should be viewed with caution. […] The titrations were carried out with 15 min time intervals between DNA additions to allow binding equilibration. […] The titration fluorescence quenching was analyzed by Scatchard analysis (Scatchard, G. Ann. N. Y. Acad. Sci. 1949, 51, 660) with the following equation: rb /c=Kb n-Kb rb where rb is the number of agent molecules bound per DNA base-pair, c is the free drug concentration, Kb is the apparent association constant, and n is the number of agent binding sites per base-pair.\nA pronounced downward curvature in an infinite lattice such as calf thymus DNA is recognized to arise in part from neighbor exclusion where the binding of an agent excludes the subsequent binding at nearby sites. This exclusion manifests itself in the plot by a reduction in the apparent binding constant as the DNA lattice approaches saturation and the probability of finding a free site is diminished. In the calf thymus DNA studies, the binding also entails multiple classes of independent binding sites or modes. For simplicity, a linear fit of the high affinity binding sites was used to determine the binding constant attributable to bis-intercalation. For the deoxyoligonucleotides, the curvature can be more simply attributed to multiple classes of independent binding sites or binding modes. There are a number of mathematical methods to deconvolute the curved plot into such individual binding events. In the deoxyoligonucleotide studies, a non-linear fit described by Feldman was also used to deconvolute the curves. The model assumes one ligand with two binding types or sites. Since the number of binding sites is limited, we have interpreted this to indicate a high affinity bis-intercalation and a lower affinity binding potentially involving mono-intercalation. The formula was fit using the JMP^22 statistical fitting program using an initial approximation of the two n values and fitting for K1 and K2.\nAfter 5 min of stirring, an initial fluorescence reading was taken with minimum exposure to the excitation beam. […] The excitation and emission wavelengths used for each analog varied and can be found in FIG. 6. The results of the titration were analyzed by Scatchard analysis. The linear portion of the Scatchard plot was used to determine the high affinity binding constants. In the case of the deoxyoligonucleotide study, a non-linear fit of the curve as described in the text was also used to determine the high affinity binding constant (Feldman, H. A. Anal. Biochem. 1972, 48, 317)."}, "L1210 cell line": {"test_system": "L1210 cell line", "assay": "In vitro cytotoxic activity, L1210", "format": "cell-based"}, "calf thymus DNA [4]": {"test_system": "calf thymus DNA", "conditions": "cited from earlier work"}, "5'-d(GCATGC)2": {"test_system": "5'-d(GCATGC)2", "assay": "DNA binding by fluorescence quenching, 5'-d(GCATGC)2", "conditions": "for DNA binding affinity, in words: 5'-d(GCATGC)2, relative to 1 and 4", "description": "as §1, §2\nA pronounced downward curvature in an infinite lattice such as calf thymus DNA is recognized to arise in part from neighbor exclusion where the binding of an agent excludes the subsequent binding at nearby sites. This exclusion manifests itself in the plot by a reduction in the apparent binding constant as the DNA lattice approaches saturation and the probability of finding a free site is diminished. In the calf thymus DNA studies, the binding also entails multiple classes of independent binding sites or modes. […]"}, "[5]": {"target": "T1, HIV-1 reverse transcriptase", "conditions": "cited from earlier work"}, "calf thymus DNA [6]": {"test_system": "calf thymus DNA", "assay": "DNA binding constants by fluorescence quenching, calf thymus DNA", "description": "as §1, with “For titration, small aliquots of DNA were added to solutions of the agents in Tris-HCl buffer (pH 7.4).” left out\nDespite these precautions, the fluorescence for a number of the analog solutions decreased for several of analogs (11, 14, 17, 21 and 22) and the quality of the binding constants for these should be viewed with caution. […] The titration fluorescence quenching was analyzed by Scatchard analysis (Scatchard, G. Ann. N. Y. Acad. Sci. 1949, 51, 660) with the following equation: rb /c=Kb n-Kb rb where rb is the number of agent molecules bound per DNA base-pair, c is the free drug concentration, Kb is the apparent association constant, and n is the number of agent binding sites per base-pair. […]"}},
  "note": "pIC50: −log10 of the molar value. Entries after “also recorded” stand apart in the source; their conditions may differ. Where two headings read alike, the source gives them in different places.",
  "data": [
    {"compound": "CC(C)[C@H]1C(=O)OC[C@@H](NC(=O)c2cc3ccccc3cc2O)C(=O)N2CCCC[C@H]2C(=O)NCC(=O)N(C)CC(=O)N(C)[C@@H](C(C)C)C(=O)OC[C@@H](NC(=O)c2cc3ccccc3cc2O)C(=O)N2CCCC[C@H]2C(=O)NCC(=O)N(C)CC(=O)N1C", "note": "[compound 5, (N-(3-Hydroxynaphthyl-2-carbonyl)-D-Ser-Pip-Gly-Sar-NMe-Val)2(Serine Hydroxyl) Dilactone]", "values": [
      {"measurement": "HIV-1 reverse transcriptase inhibition, in words", "setting": "[1]", "value": "much less effective"},
      {"measurement": "solubility in the fluorescence quenching assay", "setting": "[2]", "value": "not sufficiently soluble; also recorded: limited solubility"},
      {"measurement": "DNA binding affinity, in words", "setting": "[3]", "value": "substantially less effective than all agents in the series"},
      {"measurement": "cytotoxic potency, fold less potent than 1", "setting": "L1210 cell line", "value": 10000}
    ]},
    {"compound": "CC[n+]1c(-c2ccccc2)c2cc(N)ccc2c2ccc(N)cc21", "note": "[ethidium bromide]", "values": [
      {"measurement": "binding constant employed to calculate the absolute binding constant", "setting": "calf thymus DNA [4]", "value": 450000, "unit": "M⁻¹"}
    ]},
    {"compound": "(N-(Iso-quinolinyl-3-carbonyl)-D-Ser-Pip-Gly-Sar-NMe-Val)2 (Serine Hydroxyl) Dilactone [compound 21]", "values": [
      {"measurement": "HIV-1 reverse transcriptase inhibition, in words", "setting": "[1]", "value": "much less effective"},
      {"measurement": "DNA binding affinity, in words", "setting": "[3]", "value": "comparable to that of the monointercalator 24"},
      {"measurement": "DNA binding affinity, in words", "setting": "5'-d(GCATGC)2", "value": "substantially less effective"}
    ]},
    {"compound": "COc1ccc2nc(C(=O)N[C@@H]3COC(=O)[C@H](C(C)(C)O)N(C)C(=O)CN(C)C(=O)CNC(=O)[C@@H]4[C@@H](OC(C)=O)CC=NN4C(=O)[C@H](NC(=O)c4nc5ccc(OC)cc5cc4O)COC(=O)[C@H](C(C)(C)O)N(C)C(=O)CN(C)C(=O)CNC(=O)[C@@H]4[C@@H](OC(C)=O)CC=NN4C3=O)c(O)cc2c1", "note": "[luzopeptin A, reference compound]", "values": [
      {"measurement": "fold higher than values reported elsewhere", "setting": "[1]", "value": "20-30"},
      {"measurement": "pIC50", "setting": "[1]; range given for both agents", "value": "6.72 to 6.89"},
      {"measurement": "pIC50", "setting": "[5]; read-out: IC50 reported elsewhere", "value": 8.15}
    ]},
    {"compound": "CC(C)[C@H]1C(=O)OC[C@@H](NC(=O)c2ccc3ccccc3c2)C(=O)N2CCCC[C@H]2C(=O)NCC(=O)N(C)CC(=O)N(C)[C@@H](C(C)C)C(=O)OC[C@@H](NC(=O)c2ccc3ccccc3c2)C(=O)N2CCCC[C@H]2C(=O)NCC(=O)N(C)CC(=O)N1C", "note": "[compound 7]", "values": [
      {"measurement": "HIV-1 reverse transcriptase inhibition, in words", "setting": "[1]", "value": "much less effective"},
      {"measurement": "solubility in the fluorescence quenching assay", "setting": "[2]", "value": "not sufficiently soluble; also recorded: limited solubility"},
      {"measurement": "DNA binding affinity, in words", "setting": "[3]", "value": "substantially less effective than all agents in the series"},
      {"measurement": "cytotoxic potency, fold less potent than 4", "setting": "L1210 cell line", "value": 2000},
      {"measurement": "cytotoxic potency, fold less potent than 5", "setting": "L1210 cell line", "value": 2}
    ]},
    {"compound": "COc1ccc2nc(C(=O)N[C@@H]3COC(=O)[C@H](C(C)(C)O)N(C)C(=O)CN(C)C(=O)CNC(=O)[C@@H]4[C@@H](OC(=O)[C@@H]5C[C@H]5C)CC=NN4C(=O)[C@H](NC(=O)c4cnc5cc(OC)ccc5n4)COC(=O)[C@H](C(C)(C)O)N(C)C(=O)CN(C)C(=O)CNC(=O)[C@@H]4C(OC(C)=O)CC=NN4C3=O)cnc2c1", "note": "(stereo partly shown) [quinoxapeptin B]", "values": [
      {"measurement": "fold less potent than quinoxapeptin A and luzopeptin A", "setting": "[5]", "value": "approximately 2"}
    ]},
    {"compound": "CC(C)C1C(=O)OCC(NC(=O)c2cnc3ccccc3n2)C(=O)N2CCCCC2C(=O)NCC(=O)N(C)CC(=O)N(C)C(C(C)C)C(=O)OCC(NC(=O)c2cnc3ccccc3n2)C(=O)N2CCCCC2C(=O)NCC(=O)N(C)CC(=O)N1C", "note": "[compound 18, (N-(Quinoxalyl-2-carbonyl)-D-Ser-Pip-Gly-Sar-NMe-Val)2 (Serine Hydroxyl) Dilactone]", "values": [
      {"measurement": "HIV-1 reverse transcriptase inhibition, in words", "setting": "[1]", "value": "roughly maintain the HIV-1 reverse transcriptase inhibitory potency of 1; also recorded: Comparable but slightly less potent inhibition"},
      {"measurement": "fold less potent than sandramycin", "setting": "[1]", "value": 3},
      {"measurement": "solubility in the fluorescence quenching assay", "setting": "[2]", "value": "not sufficiently soluble; also recorded: limited solubility"},
      {"measurement": "cytotoxic potency, fold less potent than 4", "setting": "L1210 cell line", "value": "approximately 10"},
      {"measurement": "cytotoxic potency, fold less potent than 13", "setting": "L1210 cell line", "value": "approximately 10"},
      {"measurement": "cytotoxic potency, fold more potent than 19", "setting": "L1210 cell line", "value": 300}
    ]},
    {"compound": "CC(C)C1C(=O)OCC(NC(=O)c2ncccc2O)C(=O)N2CCCCC2C(=O)NCC(=O)N(C)CC(=O)N(C)C(C(C)C)C(=O)OCC(NC(=O)c2ncccc2O)C(=O)N2CCCCC2C(=O)NCC(=O)N(C)CC(=O)N1C", "note": "(stereo not shown) [compound 8]", "values": [
      {"measurement": "HIV-1 reverse transcriptase inhibition, in words", "setting": "[1]", "value": "much less effective"},
      {"measurement": "drop in DNA binding affinity", "setting": "calf thymus DNA [6]; removal of fused benzene ring", "value": 1.7, "unit": "kcal/mol"},
      {"measurement": "cytotoxic potency, fold less potent than 1", "setting": "L1210 cell line", "value": 4000},
      {"measurement": "drop in DNA binding affinity", "setting": "5'-d(GCATGC)2; 5'-d(GCATGC)2, removal of fused benzene ring", "value": "2.3 to 2.6", "unit": "kcal/mol"}
    ]},
    {"compound": "(N-(Isoquinolinyl-1-carbonyl)-D-Ser-Pip-Gly-Sar-NMe-Val)2 (Serine Hydroxyl) Dilactone [compound 22]", "values": [
      {"measurement": "HIV-1 reverse transcriptase inhibition, in words", "setting": "[1]", "value": "much less effective"},
      {"measurement": "DNA binding affinity, in words", "setting": "[3]", "value": "comparable to that of the monointercalator 24"},
      {"measurement": "DNA binding affinity, in words", "setting": "calf thymus DNA [6]", "value": "comparable to 4"},
      {"measurement": "DNA binding affinity, in words", "setting": "5'-d(GCATGC)2", "value": "substantially less effective"}
    ]}
  ]
}
